# Data: article PMC11302729, “Repurposing Hsp90 inhibitors as antimicrobials targeting two-component systems identifies compounds leading to loss of bacterial membrane integrity” (Microbiology Spectrum, 2024)
# Values joined by “and” are separate entries in the source; they are usually repeats but may differ in a detail not shown here. Equal values may be shown once. Read-outs that look alike come from different tables or passages of the source.
# Key:
# Type in all cases: cell-based
# [1] = test system: Staphylococcus aureus str. Newman; assay: Minimal inhibitory concentration (microdilution) against S. aureus; settings: for MIC S. aureus: Table ST3
# Method: (§1) Staphylococcus aureus str. Newman, Enterococcus faecalis vanA (strain E0155), Enterococcus faecium vanA (strain E1654), Escherichia coli ATCC 25922, Escherichia coli D21f2 with a truncated LPS barrier, Escherichia coli JW5503 (ΔtolC) ([49]), Pseudomonas aeruginosa ATCC 27853, and Pasteurella haemolytica ATCC 29701 were grown in Mueller-Hinton Broth (MHB) (Oxoid, Basingstoke, UK) and incubated at 37°C.
# (§2) The minimal inhibitory concentration was determined using the microdilution method following the guidelines of the European Committee on Antimicrobial Susceptibility Testing ([50]). Briefly, a series of twofold dilutions in MHB of each compound were made in a 96-well plate, with final concentrations ranging from 50 to 0.39 µg/mL in 100 µL final volume per well. A hundred microliters of 1:100 dilution of an overnight culture of the correspondent bacteria in MHB was added to each well. Plates were incubated for 18 hours at 37°C. MIC was recorded as the lowest concentration where no growth was detected as measured by optical density at 600 nm (OD600) using Spectramax M5 (Molecular Devices LLC, San Jose, CA, USA). […] Wells containing bacteria with or without 1% DMSO and medium alone were included as controls in every plate.
# in vitro = settings: human
# Method: (§3) HEK293 cells and the human hepatocellular carcinoma cells (HepG2) were routinely cultured in 75-cm^2 culture flasks (Corning Incorporated) on high-glucose Dulbecco’s modified Eagle medium (DMEM) containing glutaMax and phenol red (Gibco) supplemented with 1% penicillin/streptomycin (Gibco) and 10% fetal bovine serum (FBS) (Gibco). Cells were maintained at 37°C and 5% CO2.
# (§4) Cytotoxicity assays with HEK293 and HepG2 cells were performed in 96-well plates seeded with 5 × 10^4 cells/well and incubated for 24 hours to reach 80%–90% confluency. Exterior wells were filled with only medium to prevent evaporation. Culture medium was removed from the cells, and 100 µL of exposure medium [high-glucose DMEM without phenol red (Gibco)] was added to avoid a potential interaction between FBS components or antibiotics and tested compounds. A twofold dilution series of compounds in exposure medium (range 100–3.2 μg/mL) was made in a separate 96-well plate, and 100 µL of each of these dilutions was added to the assay plates for 24 hours at 37°C in the presence of 5% CO2. Control wells contained cells with DMEM, DMEM + 1% DMSO (vehicle control), or DMEM + 20% DMSO. Wells without cells were also included as negative control. After exposure, the medium was replaced with 100 µL 10% Alamar Blue (Invitrogen) in exposure medium. After 45 min incubation at 37°C and 5% CO2, fluorescence was measured on a Spectramax M5 plate reader at λex = 541 nm, λem = 590 nm. Cell viability compared with the vehicle control was calculated, and inhibition curves for each compound were fitted (non-linear curve fit, four variables, bottom constrained = 0) in Prism 9 (GraphPad Software, San Diego, USA).
# HEK293 cells = assay: in vitro; settings: for Selectivity Index: LC50/MIC (HEK293 / S. aureus); for LC20: human, 24 h
# Method: as §3, §4
# [2] = test system: Escherichia coli ATCC 25922; assay: MIC (microdilution) against E. coli; settings: for MIC: Escherichia coli; for MIC E. coli: Table ST1
# Method: as §1, §2
# [3] = test system: Escherichia coli JW5503 (ΔtolC); assay: MIC (microdilution) against E. coli JW5503; settings: for MIC: Escherichia coli, read-out: MIC E. coli JW5503; for MIC E. coli JW5503: Table ST1, ΔtolC mutant
# Text: We also tested the inhibitory activity of compounds in two different E. coli mutants: (i) E. coli JW5503 that lacks TolC efflux pumps and (ii) E. coli D21f2 that has a defective LPS inner core increasing permeability of the outer membrane. E. coli D21f2 has a slightly higher susceptibility to DPP compounds than E. coli ATCC25922.
# as §1, §2
# S. aureus str. Newman = assay: Membrane permeability using SYTOX-Green, flow cytometry; settings: for % FITC stained bacteria 0.5 xMIC: 0.5× MIC; for % FITC stained bacteria 2 xMIC: 2× MIC; for Membrane damage: if considered to cause membrane damage to S. aureus
# Method: S. aureus str. Newman was grown to exponential phase (OD600 = 0.4) in MHB media. […] Nisin (Sigma-Aldrich) and novobiocin (Sigma-Aldrich) were used as positive and negative controls for membrane permeabilization, and stained and unstained untreated controls were also included in each assay. After exposure, samples were centrifuged at 4,000 r.p.m. for 5 min and resuspended in PBS. Bacteria were dyed by adding the fluorescent nuclear stain SYTOX Green (Molecular Probes, Invitrogen) to a final concentration of 0.5 µM and incubating for 5 min in the dark. Samples were centrifuged again and resuspended with PBS to remove unbound stain. Three hundred microliters of each sample was transferred to a clean well in a 96-well clear-bottom plate (Corning Incorporated). Fluorescence was measured in CytoFLEX flow cytometer (Beckman Coulter, Brea, CA, USA) using the green (FITC) channel with the excitation wavelength at 488 nm. Overlay histograms were created with CytExpert Software (Beckman Coulter, Brea, CA, USA).
# [4] = Staphylococcus aureus, NEWMAN, Fig 2
# [5] = Staphylococcus aureus, NEWMAN, Fig 2, value in parentheses
# [6] = Table ST3, value in parentheses
# [7] = ATCC25922, Table 1, read-out: MIC E. coli
# [8] = ATCC25922, read-out: MIC E. coli
SMILES,"MIC [1, 4]","MIC [1, 5]",MIC S. aureus [1],"MIC [1, 6]",CC50 at 24 h (in vitro),Selectivity Index (HEK293 cells),"MIC [2, 7]",MIC E. coli [2],MIC [3],MIC E. coli JW5503 [3],% FITC stained bacteria 0.5 xMIC (S. aureus str. Newman; 5 min exposure),"% FITC stained bacteria 1 xMIC (S. aureus str. Newman; 1× MIC, 5 min exposure)",% FITC stained bacteria 2 xMIC (S. aureus str. Newman; 5 min exposure),Membrane damage (S. aureus str. Newman),"MIC [2, 8]",LC20 (HEK293 cells),"Loss of membrane integrity (S. aureus str. Newman; 1× MIC, 5 min exposure)"
CCOc1ccc(-c2[nH]nc(C(F)(F)F)c2-c2ccc(Cl)cc2)c(O)c1 [DPP-7],3.12 µg/mL,8.21 µM,3.12 µg/mL,8.21 µM,10.8 µg/mL and 28.5 µM,3.47,> 250 µg/mL,>250 µg/mL,3.12 µg/mL,3.12 µg/mL,42.44%,50.30%,54.59%,YES,,,
COc1ccc(-c2c(C(F)(F)F)n[nH]c2-c2ccc(O)cc2O)cc1 [DPP-12],12.5 µg/mL,35.7 µM,12.50 µg/mL,35.71 µM,31.7 µg/mL and 90.7 µM,2.54,,>250 µg/mL,12.5 µg/mL,12.5 µg/mL,9.04%,24.16%,29.11%,MILD,> 250 µg/mL,,
COc1ccc(-c2c(C(F)(F)F)n[nH]c2-c2ccc(OC)cc2O)cc1 [DPP-13],12.5 µg/mL,34.3 µM,12.50 µg/mL,34.34 µM,29.9 µg/mL and 82.1 µM,2.39,,>250 µg/mL,12.5 µg/mL,12.5 µg/mL,35.10%,45.40%,45.44%,YES,> 250 µg/mL,,
Oc1ccc(-c2n[nH]c(C(F)(F)F)c2-c2ccc(Cl)cc2)c(O)c1 [DPP-5],3.12 µg/mL,8.79 µM,3.12 µg/mL,8.79 µM,12.9 µg/mL and 36.3 µM,4.13,50 µg/mL,50 µg/mL,3.12 µg/mL,3.12 µg/mL,13.40%,13.42%,41.29%,MILD,,5 µg/mL,did not cause significant loss of membrane integrity
COc1ccc(-c2[nH]nc(C(F)(F)F)c2-c2ccc(Cl)cc2)c(O)c1 [DPP-6],3.12 µg/mL,8.43 µM,3.12 µg/mL,8.43 µM,14.3 µg/mL and 38.6 µM,4.58,> 250 µg/mL,>250 µg/mL,3.12 µg/mL,3.12 µg/mL,36.93%,44.48%,48.91%,YES,,6 µg/mL,
COc1ccc(-c2[nH]nc(C(F)(F)F)c2-c2ccccc2)c(O)c1 [DPP-2],12.5 µg/mL,37.3 µM,12.50 µg/mL,37.3 µM,7.34 µg/mL and 21.9 µM,0.60,> 250 µg/mL,>250 µg/mL,6.25 µg/mL,6.25 µg/mL,49.81%,54.03%,63.56%,YES,,,
